From ChEMBL document CHEMBL1156840, “Design, synthesis and biological evaluation of new 2,3-diarylquinoline derivatives as selective cyclooxygenase-2 inhibitors” (Bioorg Med Chem, 2010) come the findings set out here.

This experiment addresses T1, Prostaglandin G/H synthase 1 (Ovis aries, UniProt P05979).
T1 sequence (P05979 whole entry): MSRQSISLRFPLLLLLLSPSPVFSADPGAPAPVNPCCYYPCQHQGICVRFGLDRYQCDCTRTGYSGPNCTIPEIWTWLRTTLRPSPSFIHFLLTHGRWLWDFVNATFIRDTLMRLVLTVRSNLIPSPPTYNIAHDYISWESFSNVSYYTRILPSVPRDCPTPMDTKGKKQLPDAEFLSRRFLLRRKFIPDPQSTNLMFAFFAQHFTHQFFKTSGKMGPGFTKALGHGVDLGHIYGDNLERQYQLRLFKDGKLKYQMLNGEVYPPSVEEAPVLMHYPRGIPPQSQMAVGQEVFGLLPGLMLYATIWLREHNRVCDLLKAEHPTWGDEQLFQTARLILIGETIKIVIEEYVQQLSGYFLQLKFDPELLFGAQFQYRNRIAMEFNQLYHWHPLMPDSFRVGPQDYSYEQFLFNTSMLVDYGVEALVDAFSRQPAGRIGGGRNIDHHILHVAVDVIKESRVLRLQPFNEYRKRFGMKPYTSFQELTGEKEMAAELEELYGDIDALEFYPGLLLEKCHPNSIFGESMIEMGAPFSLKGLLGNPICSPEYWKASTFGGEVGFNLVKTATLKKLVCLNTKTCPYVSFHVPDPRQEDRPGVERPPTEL
Description: Inhibition of ovine COX1 by enzyme chemiluminescent enzyme assay
The molecule `CS(=O)(=O)c1ccc(-c2nc3ccccc3cc2-c2ccccc2)cc1` came in with an IC50 of 33.5 µM. That is a double-digit micromolar value.

`CS(=O)(=O)c1ccc(-c2nc3ccccc3c(C(=O)O)c2-c2ccccc2)cc1` came in with an IC50 of 48.1 µM.

`CS(=O)(=O)c1ccc(-c2nc3ccccc3c(-c3ccccc3)c2-c2ccccc2)cc1`: 10.2 µM corresponded to half-maximal inhibition (IC50).

In turn, `CS(=O)(=O)c1ccc(-c2nc3ccccc3c(N)c2-c2ccccc2)cc1` yielded a 50% inhibitory concentration (IC50) of 14.4 µM.

`Cc1c(-c2ccccc2)c(-c2ccc(S(C)(=O)=O)cc2)nc2ccccc12` registered an IC50 of 13.3 µM.

What is called IC50 is the midpoint of a concentration-inhibition curve. A lower IC50 goes with higher potency.
